Some test systems named below: HCT-15 colon; MOLT-4 leukemia; NCI-H23 lung; RPMI-8226 leukemia; RXF 393 renal; SF-268 CNS; SK-MEL-5 melanoma; SNB-19 CNS; SNB-75 CNS; TK-10 renal.
What all share (test): NCI tumour cell line growth inhibition, 48 h

Structures are written as SMILES.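 Assay format: 96-well plates, 48-hour exposure. At the GI50, growth is halved. At the TGI there is no net growth.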

Regarding `CCN(CC)CCC(CNc1ccnc2cc(Cl)ccc12)c1ccc(Cl)cc1` (stereo not given), the GI50 with HCT-15 colon was 1.05 µM; with MOLT-4 leukemia, 1.6 µM; with NCI-H23 lung it was 1.87 µM; with RPMI-8226 leukemia it was 1.02 µM; in the test with RXF 393 renal, 1.04 µM; in the test with SF-268 CNS, 1.97 µM. The GI50 in the test with SK-MEL-5 melanoma is 1.11 µM; with SNB-19 CNS, 1.98 µM; with SNB-75 CNS, 1.3 µM; with TK-10 renal it was 0.436 µM. In addition, the TGI with HCT-15 colon was determined as 4.89 µM; in the test on MOLT-4 leukemia, 9.27 µM; in the test with NCI-H23 lung, 7.1 µM; with RPMI-8226 leukemia it was 3.67 µM; in the test on RXF 393 renal, 2.32 µM; with SF-268 CNS, 4.61 µM. Also, the TGI in the test on SK-MEL-5 melanoma worked out at 2.34 µM; with SNB-19 CNS, 5.78 µM; in the test on SNB-75 CNS, 2.64 µM; in the test with TK-10 renal, 1.63 µM.

For `COC(=O)C1c2cc3c(cc2C(OC2OC(C)C(OC)C(C)(OC)C2OC)CC1(C)O)C(=O)c1c(O)cc2c(c1C3=O)OC1OC2(C)C(O)C([N+](C)(C)[O-])C1O` (stereo not given), the TGI with HCT-15 colon is more than 100 µM; with MOLT-4 leukemia, 4.97 µM; with NCI-H23 lung it was 0.718 µM; with RPMI-8226 leukemia, more than 100 µM; with RXF 393 renal, 0.977 µM; in the test with SF-268 CNS it was more than 21.4 µM. The TGI with SK-MEL-5 melanoma was 0.352 µM; in the test on SNB-19 CNS, more than 36.1 µM; in the test on SNB-75 CNS, 1.86 µM; in the test with TK-10 renal, more than 100 µM.

Turning to `C=C1C(=O)OC2CC(C)C(C(CC(C)=O)OC(C)=O)=CCC12` (stereo not given), the TGI in the test with HCT-15 colon came out at 7.96 µM; in the test on MOLT-4 leukemia, 20.4 µM; in the test on NCI-H23 lung, 34.3 µM; in the test with RPMI-8226 leukemia, 21.6 µM; with RXF 393 renal, 32.2 µM; in the test on SF-268 CNS it was 74.5 µM. The TGI was 32 µM in the test with SK-MEL-5 melanoma, more than 74.9 µM in the test with SNB-19 CNS, 54.2 µM with SNB-75 CNS and 31.1 µM in the test with TK-10 renal.

Turning to `Oc1ccc(Nc2ncnc3c2sc2ncccc23)cc1`, the GI50 with HCT-15 colon is 0.088 µM; in the test on MOLT-4 leukemia it was 0.0527 µM; in the test on NCI-H23 lung, less than 0.01 µM; with RPMI-8226 leukemia it was 0.0485 µM; in the test with RXF 393 renal, 0.071 µM; with SF-268 CNS, 0.0407 µM. Moreover, the GI50 with SK-MEL-5 melanoma is 0.047 µM; with SNB-19 CNS, 0.0246 µM; in the test on SNB-75 CNS, 0.0595 µM; with TK-10 renal it was more than 100 µM. Besides, the TGI in the test with HCT-15 colon was more than 100 µM; in the test with MOLT-4 leukemia it was more than 45.5 µM; in the test with NCI-H23 lung, 9.53 µM; in the test with RPMI-8226 leukemia, more than 100 µM; in the test on RXF 393 renal it was 97 µM; with SF-268 CNS, more than 100 µM. The TGI is more than 100 µM with SK-MEL-5 melanoma, more than 100 µM with SNB-19 CNS, 7.35 µM in the test with SNB-75 CNS and more than 100 µM in the test with TK-10 renal.

With `NC(N)=N/N=C/c1c(-c2ccsc2)nc2sccn12`, the GI50 is 17.1 µM in the test on HCT-15 colon; 10.8 µM with MOLT-4 leukemia; 13.5 µM in the test with NCI-H23 lung; 4.83 µM with RPMI-8226 leukemia; 17.9 µM in the test with RXF 393 renal; 15.3 µM in the test on SF-268 CNS. Besides, the GI50 in the test with SK-MEL-5 melanoma was 14.4 µM; with SNB-19 CNS, 16.7 µM; in the test on SNB-75 CNS, 13.4 µM; in the test on TK-10 renal it was 10.8 µM. The TGI in the test on HCT-15 colon worked out at 31.7 µM; with MOLT-4 leukemia it was 39 µM; with NCI-H23 lung, 26.4 µM; in the test with RPMI-8226 leukemia, 20.7 µM; with RXF 393 renal it was 40 µM; in the test on SF-268 CNS, 29.4 µM. In addition, the TGI worked out at 28.8 µM in the test with SK-MEL-5 melanoma, 32.6 µM in the test with SNB-19 CNS, 26.4 µM with SNB-75 CNS and 22.7 µM in the test on TK-10 renal.

Regarding `COC(=O)c1ccc2c(c1)nc(NC(=O)c1ccccc1)n2CCCc1ccccc1`, the GI50 with HCT-15 colon was 1.89 µM; in the test on MOLT-4 leukemia, 2.78 µM; in the test on NCI-H23 lung, 5.26 µM; in the test with RPMI-8226 leukemia, 5.31 µM; in the test on RXF 393 renal, 16.3 µM; in the test with SF-268 CNS, 3.93 µM. The GI50 is 2.13 µM in the test on SK-MEL-5 melanoma, 4.25 µM in the test with SNB-19 CNS, 18.6 µM with SNB-75 CNS and 8.86 µM in the test on TK-10 renal. Also, the TGI in the test with HCT-15 colon, in the test on MOLT-4 leukemia, in the test with NCI-H23 lung, in the test on RPMI-8226 leukemia, in the test with RXF 393 renal and with SF-268 CNS was more than 100 µM in each case. Besides, the TGI in the test with SK-MEL-5 melanoma is 5.87 µM; with SNB-19 CNS, more than 100 µM; with SNB-75 CNS, more than 100 µM; in the test on TK-10 renal it was more than 100 µM.

`O=C(Nc1ccc(Br)cc1F)c1cc(F)ccc1O`: the GI50 is 0.773 µM in the test with HCT-15 colon; 1.86 µM in the test with MOLT-4 leukemia; 0.386 µM with NCI-H23 lung; 0.296 µM in the test on RPMI-8226 leukemia; 0.554 µM in the test with RXF 393 renal; 0.558 µM in the test with SF-268 CNS. In addition, the GI50 is 0.227 µM with SK-MEL-5 melanoma, 0.419 µM in the test with SNB-19 CNS, 0.225 µM with SNB-75 CNS and 3.26 µM with TK-10 renal. In addition, the TGI with HCT-15 colon was 7.34 µM; in the test on MOLT-4 leukemia, 6.4 µM; in the test on NCI-H23 lung it was 3.15 µM; in the test with RPMI-8226 leukemia, 1.36 µM; in the test on RXF 393 renal, 3.1 µM; with SF-268 CNS, 10.1 µM. For the same compound, the TGI with SK-MEL-5 melanoma was 0.541 µM; in the test with SNB-19 CNS it was more than 100 µM; with SNB-75 CNS, 2.11 µM; in the test on TK-10 renal, 18 µM.

Turning to `COC(=O)COc1ccccc1/C=C1\N=C(c2ccccc2)N(c2cc(C(F)(F)F)ccc2Cl)C1=O`, the GI50 in the test with HCT-15 colon was more than 100 µM; in the test with MOLT-4 leukemia, 23 µM; in the test with NCI-H23 lung, more than 100 µM; in the test on RPMI-8226 leukemia, 24.9 µM; in the test with RXF 393 renal it was 71.6 µM; with SF-268 CNS, 29.8 µM. Besides, the GI50 in the test with SK-MEL-5 melanoma is 42.9 µM; in the test with SNB-19 CNS it was 43.5 µM; in the test on SNB-75 CNS, 34.4 µM; in the test with TK-10 renal, 56.3 µM. For the same compound, the TGI in the test on HCT-15 colon is more than 100 µM; in the test with MOLT-4 leukemia, 62.3 µM; in the test with NCI-H23 lung, more than 100 µM; in the test with RPMI-8226 leukemia it was 72.7 µM; in the test on RXF 393 renal, more than 100 µM; in the test with SF-268 CNS, more than 100 µM. Further, the TGI in the test with SK-MEL-5 melanoma, with SNB-19 CNS, with SNB-75 CNS and in the test on TK-10 renal was more than 100 µM throughout.
